Measurements taken from PMC12389196, “Novel Indole-Based Sulfonylhydrazones as Potential Anti-Breast Cancer Agents: Synthesis, In Vitro Evaluation, ADME, and QSAR Studies” (Pharmaceuticals, 2025).
Values joined by “and” are separate entries in the source; they are usually repeats but may differ in a detail not shown here. Equal values may be shown once.

Key:
[1] = tested on: MDA-MB-231 (triple-negative breast cancer) cells; assay: MTT assay, antiproliferative activity on MDA-MB-231 cells; type: cell-based, human; conditions: for IC50: MTT, 72 h; for SI MDA-MB-231 (selectivity index): SI = IC50 on Neuro-2a/IC50 on MDA-MB-231
Experimental: (§1) The antiproliferative activity of the novel indolyl-methylidene-substituted phenylsulfonylhydrazones (3a–j) and the bis-indole hydrazine derivative (4) was evaluated against two breast cancer cell lines: MCF-7 and MDA-MB-231. The MCF-7 cell line, derived from human breast adenocarcinoma, expresses estrogen receptor alpha (ER-α). In contrast, the MDA-MB-231 cell line represents triple-negative breast cancer (TNBC) and lacks expression of estrogen, progesterone, and HER2 receptors. Antiproliferative activity was expressed as IC50, the concentration (in μM) required to inhibit 50% of cell growth, and ligand efficiency (LE), calculated as LE = −log(IC50)/number of heavy atoms. To assess the selectivity index (SI = IC50 on Neuro-2a/IC50 on breast cancer cell line), the compounds were also tested on Neuro-2a cells, a mouse neuroblastoma cell line derived from brain tissue.
(§2) The in vitro antineoplastic activity of the synthesized compounds was tested against human breast cancer cell lines, comprising the triple-negative MDA-MB-231 and the […] MCF-7. Neuroblastoma mouse cells Neuro-2a were used as a non-breast cancer cell line reference. All cell lines were obtained from the German Collection of Microorganisms and Cell Cultures (DSMZ, Braunschweig, Germany) and cultivated and maintained in accordance with the supplier’s protocols. The cells were cultured in RPMI 1640 growth medium (Gibco, Thermo Fisher Scientific, Waltham, MA, USA), supplemented with 10% fetal bovine serum (FBS; Gibco, Thermo Fisher Scientific, Waltham, MA, USA) and 5% L-glutamine (Gibco, Thermo Fisher Scientific, Waltham, MA, USA), and incubated at standard conditions of 37 °C in a humidified environment with 5% CO2.
(§3) The cytostatic activity of the tested compounds was evaluated using the Mosmann MTT assay—a well-established colorimetric method for assessing cell viability. This assay measures mitochondrial enzyme activity by reducing the yellow dye MTT (3-(4,5-dimethylthiazol-2-yl)-2,5-diphenyltetrazolium bromide) into violet formazan crystals. The exponentially growing cells were harvested and seeded into 96-well plates at a density of 1.5 × 10^5 cells per well in 100 μL of medium and incubated for 24 h. The cell cultures were then treated with various concentrations (200–6.25 μM) of the tested compounds and incubated for 72 h. Cell viability was quantified as a percentage (%) relative to the untreated control, which was set at 100% viability.
(§4) The experimental data were analyzed using nonlinear regression in GraphPad Prism® software, version 9.0. Semi-logarithmic dose–response curves were generated, and the half-maximal inhibitory concentrations (IC50) of the tested compounds were calculated for each tumor cell line.

[2] = tested on: MCF-7 (ER-positive breast adenocarcinoma) cells; assay: MTT assay, antiproliferative activity on MCF-7 cells; type: cell-based, human; conditions: for IC50: MTT, 72 h; for SI MCF-7 (selectivity index): SI = IC50 on Neuro-2a/IC50 on MCF-7
Experimental: as §1, §2, §3, §4

[3] = tested on: Neuro-2a (mouse neuroblastoma) cells; assay: MTT assay on Neuro-2a reference cells; type: cell-based; conditions: N2a, 72 h
Experimental: as §1, §2, §3, §4

[4] = tested on: MCF-7 (ER-positive breast adenocarcinoma) cells; design: method as in PMID 36903304; conditions: previous study ref 48; cited from earlier work

COc1ccc(S(=O)(=O)N/N=C/c2c[nH]c3ccc(Cl)cc23)cc1 [3g, N′-[(E)-(5-Chloro-1H-indol-3-yl)methylidene]-4-methoxybenzene-1-sulfonohydrazide]
IC50 ([1]; Homo sapiens, MDA-MB-231, 72 h): 14.7 ± 1.8 µM
SI MDA-MB-231 (selectivity index) [1]: 1.782
IC50 ([2]; Homo sapiens, MCF7, 72 h): 12.7 ± 2.8 µM
SI MCF-7 (selectivity index) [2]: 2.063
IC50 [3]: 26.2 ± 3.5 µM

N.N.[Cl][Pt][Cl] [Cisplatin, reference compound]
IC50 [1]: 63.4 ± 7.2 µM
IC50 [2]: 50.3 ± 6.5 µM

Cc1ccc(S(=O)(=O)N/N=C/c2c[nH]c3ccc(Br)cc23)cc1 [3e, N′-[(E)-(5-Bromo-1H-indol-3-yl)methylidene]-4-methylbenzene-1-sulfonohydrazide]
IC50 ([1]; Homo sapiens, MDA-MB-231, 72 h): 18.7 ± 2.7 µM
SI MDA-MB-231 (selectivity index) [1]: 1.861
IC50 ([2]; Homo sapiens, MCF7, 72 h): 29.6 ± 5.1 µM
SI MCF-7 (selectivity index) [2]: 1.176
IC50 [3]: 34.8 ± 5.7 µM

O=S(=O)(N/N=C/c1c[nH]c2ccc(Br)cc12)c1ccccc1 [3f, N′-[(E)-(5-Bromo-1H-indol-3-yl)methylidene]benzene-1-sulfonohydrazide]
SI MDA-MB-231 (selectivity index) [1]: 2.319
IC50 ([2]; Homo sapiens, MCF7, 72 h): < 6 µM
IC50 [2]: 5.9 ± 1.4 µM
SI MCF-7 (selectivity index) [2]: 1.847
IC50 [3]: 10.9 ± 1.8 µM

CC(=O)n1cc(/C=N/NS(=O)(=O)c2c(C)cc(C)cc2C)c2ccccc21 [3b, N′-[(E)-(1-Acetyl-1H-indol-3-yl)methylidene]-2,4,6-trimethylbenzene-1-sulfonohydrazide]
IC50 ([1]; Homo sapiens, MDA-MB-231, 72 h): 16.3 ± 4.1 µM
SI MDA-MB-231 (selectivity index) [1]: 5.147
IC50 ([2]; Homo sapiens, MCF7, 72 h): 4 ± 0.9 µM
SI MCF-7 (selectivity index) [2]: 20.975
IC50 [3]: 83.9 ± 9.4 µM

Cc1cc(C)c(S(=O)(=O)N/N=C/c2c[nH]c3ccc(Cl)cc23)c(C)c1 [3h, N′-[(E)-(5-Chloro-1H-indol-3-yl)methylidene]-2,4,6-trimethylbenzene-1-sulfonohydrazide]
IC50 ([1]; Homo sapiens, MDA-MB-231, 72 h): 18.1 ± 2.5 µM
SI MDA-MB-231 (selectivity index) [1]: 1.326
IC50 ([2]; Homo sapiens, MCF7, 72 h): 15.2 ± 2.1 µM
SI MCF-7 (selectivity index) [2]: 1.579
IC50 [3]: 24 ± 1.9 µM

Cc1cc(C)c(S(=O)(=O)N/N=C/c2c[nH]c3ccc(Br)cc23)c(C)c1 [3d, N′-[(E)-(5-Bromo-1H-indol-3-yl)methylidene]-2,4,6-trimethylbenzene-1-sulfonohydrazide]
IC50 ([1]; Homo sapiens, MDA-MB-231, 72 h): 19.9 ± 1.6 µM
SI MDA-MB-231 (selectivity index) [1]: 1.055
IC50 ([2]; Homo sapiens, MCF7, 72 h): 4.2 ± 0.7 µM
SI MCF-7 (selectivity index) [2]: 5.000
IC50 [3]: 21 ± 2.1 µM

N′-[(1-acetyl-1H-indol-3-yl)methylidene]benzenesulfonohydrazide [1c]
selectivity index MCF-7, earlier series of arylsulfonylhydrazones [4]: up to 40

CC(=O)n1cc(C=NNS(=O)(=O)c2ccc(C)cc2)c2ccccc21 [1d, N′-[(1-acetyl-1H-indol-3-yl)methylidene]-4-methylbenzenesulfonohydrazide]
selectivity index MCF-7, earlier series of arylsulfonylhydrazones [4]: ≤ 46

COc1ccc(S(=O)(=O)N/N=C/c2cn(C(C)=O)c3ccccc23)cc1 [3a, N′-[(E)-(1-Acetyl-1H-indol-3-yl)methylidene]-4-methoxybenzene-1-sulfonohydrazide]
IC50 ([1]; Homo sapiens, MDA-MB-231, 72 h): 20.1 ± 3.4 µM
SI MDA-MB-231 (selectivity index) [1]: 2.886
IC50 ([2]; Homo sapiens, MCF7, 72 h): 4.3 ± 1.3 µM
SI MCF-7 (selectivity index) [2]: 13.5 and 13.488
IC50 [3]: 58 ± 8.2 µM

COc1ccc(S(=O)(=O)N/N=C/c2c[nH]c3ccc(Br)cc23)cc1 [3c, N′-[(E)-(5-Bromo-1H-indol-3-yl)methylidene]-4-methoxybenzene-1-sulfonohydrazide]
IC50 ([1]; Homo sapiens, MDA-MB-231, 72 h): 17.7 ± 2.3 µM
SI MDA-MB-231 (selectivity index) [1]: 1.051
IC50 ([2]; Homo sapiens, MCF7, 72 h): 5.2 ± 1 µM
SI MCF-7 (selectivity index) [2]: 3.577
IC50 [3]: 18.6 ± 3.9 µM

Cc1ccc(S(=O)(=O)N/N=C/c2c[nH]c3ccc(Cl)cc23)cc1C [3j, N′-[(E)-(5-Chloro-1H-indol-3-yl)methylidene]-3,4-dimethylbenzene-1-sulfonohydrazide]
IC50 ([1]; Homo sapiens, MDA-MB-231, 72 h): 13.3 ± 2.2 µM
SI MDA-MB-231 (selectivity index) [1]: 2.669
IC50 ([2]; Homo sapiens, MCF7, 72 h): 11.5 ± 2.3 µM
SI MCF-7 (selectivity index) [2]: 3.087
IC50 [3]: 35.5 ± 5.3 µM

Cc1ccc(S(=O)(=O)N/N=C/c2c[nH]c3ccc(Cl)cc23)c(C)c1 [3i, N′-[(E)-(5-Chloro-1H-indol-3-yl)methylidene]-2,4-dimethylbenzene-1-sulfonohydrazide]
IC50 ([1]; Homo sapiens, MDA-MB-231, 72 h): < 10 µM
IC50 [1]: 9.5 ± 1.5 µM
SI MDA-MB-231 (selectivity index) [1]: 1.674
IC50 ([2]; Homo sapiens, MCF7, 72 h): 12.4 ± 3.2 µM
SI MCF-7 (selectivity index) [2]: 1.282
IC50 [3]: 15.9 ± 1.6 µM

Clc1ccc2[nH]cc(/C=N/N=C/c3c[nH]c4ccc(Cl)cc34)c2c1 [compound 4, 3,3′-[(1E,2E)-hydrazine-1,2-diylidenedi(E)methylylidene]bis(5-chloro-1H-indole)]
IC50 ([1]; Homo sapiens, MDA-MB-231, 72 h): 66 ± 7.4 µM
SI MDA-MB-231 (selectivity index) [1]: 0.814
IC50 ([2]; Homo sapiens, MCF7, 72 h): 21.4 ± 4.9 µM
SI MCF-7 (selectivity index) [2]: 2.509
IC50 [3]: 53.7 ± 3.1 µM
